This note sets out measurements from paper PMC7796366, “Application of HPLC-DAD for In Vitro Investigation of Acetylcholinesterase Inhibition Activity of Selected Isoquinoline Alkaloids from Sanguinaria canadensis Extracts” (Molecules, 2021).

One may read the IC50 as the concentration at which inhibition is half-maximal. A lower IC50 goes with greater potency. Usually inhibition stands for how much of the control response was suppressed. High values mean a response far below the control, low ones a response near the control.

The assay addresses T1, acetylcholinesterase (Homo sapiens, UniProt P22303).
T1 construct: purchased Sigma-Aldrich (St. Louis, MO, USA)
As to the kind of experiment: biochemical. It is filed as biochemical. Conditions: for IC50: concentration of acetylcholinesterase 0.2 U/mL, HPLC-DAD; for inhibition: single alkaloid standard, addition of 125 µL of 1 mg/mL (250 µg/mL final), acetylcholinesterase 10 U/mL. The method, then: For determination of acetylcholinesterase inhibitory activity, HPLC analysis was performed on the same apparatus as determination of alkaloid contents on Polar RP column with mobile phase A containing methanol and 0.0025 M diethylamine, mobile phase B containing acetate buffer at pH 3.8 and 0.0025 M diethylamine, and mobile phase in gradient elution: 0–15 min, 10% A; 15–30 min, 10–70% A; 30–60 min, 70% A. Flow rate was 1 mL/min.
[…] Samples for determination of acetylcholinesterase inhibitory activity were prepared by addition of 50 µL of acetylthiocholine iodide, 50 µL of 5′-dithiobis-(2-nitrobenzoic acid), […], and phosphate buffer at pH 7.8 to obtain 500 µL of final solution. […] All components were mixed and samples were incubated for 15 min at 37 °C. Samples were filtrated by syringe filter (CHROMAFIL Xtra, PVDF-29/25 0.20 µm) and injected into the HPLC system.

Several values for one entry are separate records, joined by “and”; a condition that tells them apart may be missing. Identical values can stand only once.

T1 sequence (P22303 32-614, species assumed): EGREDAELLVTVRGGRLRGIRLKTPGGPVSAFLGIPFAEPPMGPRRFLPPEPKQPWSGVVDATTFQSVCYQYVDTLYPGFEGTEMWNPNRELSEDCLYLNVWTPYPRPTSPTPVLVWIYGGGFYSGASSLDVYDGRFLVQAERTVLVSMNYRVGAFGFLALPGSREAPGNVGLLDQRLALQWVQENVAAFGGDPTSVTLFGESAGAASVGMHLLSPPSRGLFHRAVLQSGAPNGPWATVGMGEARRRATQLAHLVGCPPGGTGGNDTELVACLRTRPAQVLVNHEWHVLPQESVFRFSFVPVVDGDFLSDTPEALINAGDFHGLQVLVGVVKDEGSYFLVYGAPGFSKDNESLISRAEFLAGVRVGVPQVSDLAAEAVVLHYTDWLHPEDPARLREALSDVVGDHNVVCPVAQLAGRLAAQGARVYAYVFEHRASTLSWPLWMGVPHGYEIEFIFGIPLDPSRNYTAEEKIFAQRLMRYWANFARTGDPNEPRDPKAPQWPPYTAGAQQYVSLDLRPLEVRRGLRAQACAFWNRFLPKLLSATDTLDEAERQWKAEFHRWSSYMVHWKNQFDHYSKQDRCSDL

On to `COc1ccc2cc3[n+](cc2c1OC)CCc1cc2c(cc1-3)OCO2` [Berberine], for which the “% inhibition of acetylcholinesterase activity” value is on record as “highest activity”.

For `COc1ccc2c(c[n+](C)c3c4cc5c(cc4ccc23)OCO5)c1OC` [Chelerythrine], the IC50 was 0.718 µM and 0.72 µM; the inhibition came to 100%.

Take `CN1Cc2c(ccc3c2OCO3)[C@@H]2[C@H]1c1cc3c(cc1C[C@@H]2O)OCO3` [Chelidonine]: the IC50 is 27 µM and the inhibition stood at 100%.

Take `CN1CCc2cc3c(cc2C(=O)Cc2ccc4c(c2C1)OCO4)OCO3` [Protopine]: half-maximal inhibition (IC50) required 65.5 µM and the inhibition was around 22%.

On to `C[n+]1cc2c3c(ccc2c2ccc4cc5c(cc4c21)OCO5)OCO3` [Sanguinarine], for which the IC50 is 5.57 µM.
